In US20070259965A1, “Acyclic 1,3-Diamine And Uses Therefor” (SmithKline Beecham Corporation, priority 2004, published 2007):
pEC50: −log10 of the molar value.

Molecular target: T1, TRPV4 channel receptors (Bos taurus, UniProt A0A8F4X677)
T1 construct: obtained using this method in bovine articular chondrocytes; endogenous in cells; host or cells: bovine articular chondrocytes (primary)
Experiment: Ca2+ influx by Fura-2 fluorescence on a FlexStation in bovine articular chondrocytes
Assay type: cell-based
Details: Fura-2, FlexStation
From the text: Ca^2+influx mediated through TRPV4 channel receptors can be measured using articular chondrocytes from such species as, but not limited to, human, rat, canine, rabbit, monkey, and bovine, using standard techniques in the art such as, but not limited to, Fura-2 (Invitrogen/Molecular Probes, Eugene, Oreg.) fluorescence using a FlexStation (manufactured by Molecular Devices, Sunnyvale, Calif.). Table 1 lists biological data for several representative compounds obtained using this method in bovine articular chondrocytes.

T1 sequence (A0A8F4X677 1-871): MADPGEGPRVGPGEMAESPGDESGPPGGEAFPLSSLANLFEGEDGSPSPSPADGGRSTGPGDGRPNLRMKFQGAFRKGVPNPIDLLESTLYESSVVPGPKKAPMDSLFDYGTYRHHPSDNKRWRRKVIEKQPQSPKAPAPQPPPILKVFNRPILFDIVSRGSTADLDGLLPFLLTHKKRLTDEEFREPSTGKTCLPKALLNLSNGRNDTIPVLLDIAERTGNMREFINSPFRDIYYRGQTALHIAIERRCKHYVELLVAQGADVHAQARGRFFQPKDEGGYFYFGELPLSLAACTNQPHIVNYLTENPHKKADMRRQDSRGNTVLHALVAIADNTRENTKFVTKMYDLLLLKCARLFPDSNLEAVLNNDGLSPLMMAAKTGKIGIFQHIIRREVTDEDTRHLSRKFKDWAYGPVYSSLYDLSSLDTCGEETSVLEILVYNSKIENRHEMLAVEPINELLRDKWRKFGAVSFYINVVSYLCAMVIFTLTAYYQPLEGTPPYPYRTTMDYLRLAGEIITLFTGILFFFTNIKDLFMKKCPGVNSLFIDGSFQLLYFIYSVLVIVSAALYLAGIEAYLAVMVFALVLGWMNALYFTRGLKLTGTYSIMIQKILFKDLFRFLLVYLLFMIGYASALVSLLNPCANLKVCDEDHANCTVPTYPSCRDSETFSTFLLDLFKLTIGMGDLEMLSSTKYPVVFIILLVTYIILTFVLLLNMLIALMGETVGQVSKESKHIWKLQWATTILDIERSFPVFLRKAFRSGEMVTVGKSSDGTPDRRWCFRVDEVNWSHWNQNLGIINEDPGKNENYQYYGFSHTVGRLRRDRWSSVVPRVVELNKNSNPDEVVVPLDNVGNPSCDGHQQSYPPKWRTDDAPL

With CC(C)C[C@H](NC(=O)c1cc2ccccc2s1)C(=O)NCCCN(C)S(=O)(=O)c1ccc(F)cc1Cl [Example 6, N-{(1S)-1-[({3-[[(2-chloro-4-fluorophenyl)sulfonyl](methyl)amino]propyl}amino)carbonyl]-3-methylbutyl}-1-benzothiophene-2-carboxamide] as the compound, how does the pEC50 read?
Its pEC50 is 6.00 to 6.85.

With CC(C)C[C@H](NC(=O)c1cc2ccccc2s1)C(=O)NCCCN(C)S(=O)(=O)c1sccc1C#N [Example 13, N-{(1S)-1-[({3-[[(3-cyano-2-thienyl)sulfonyl](methyl)amino]propyl}amino)carbonyl]-3-methylbutyl}-1-benzothiophene-2-carboxamide] as the compound, how does the pEC50 read?
The pEC50 was 5.00 to 6.00.

How did the pEC50 turn out when Cc1c(C(=O)N[C@@H](CC(C)C)C(=O)NCCCN(C)S(=O)(=O)c2ccccc2C#N)oc2cccnc12 [Example 73, N-{(1S)-1-[({3-[[(2-cyanophenyl)sulfonyl](methyl)amino]propyl}amino)carbonyl]-3-methylbutyl}-3-methylfuro[3,2-b]pyridine-2-carboxamide] was run?
The pEC50 was 4.52 to 5.00.

Molecular target: T2, TRPV4 channel receptor (Homo sapiens, UniProt Q9HBA0)
T2 construct: expressed in transfected cells; host or cells: HEK cells
T2 sequence (Q9HBA0 whole entry): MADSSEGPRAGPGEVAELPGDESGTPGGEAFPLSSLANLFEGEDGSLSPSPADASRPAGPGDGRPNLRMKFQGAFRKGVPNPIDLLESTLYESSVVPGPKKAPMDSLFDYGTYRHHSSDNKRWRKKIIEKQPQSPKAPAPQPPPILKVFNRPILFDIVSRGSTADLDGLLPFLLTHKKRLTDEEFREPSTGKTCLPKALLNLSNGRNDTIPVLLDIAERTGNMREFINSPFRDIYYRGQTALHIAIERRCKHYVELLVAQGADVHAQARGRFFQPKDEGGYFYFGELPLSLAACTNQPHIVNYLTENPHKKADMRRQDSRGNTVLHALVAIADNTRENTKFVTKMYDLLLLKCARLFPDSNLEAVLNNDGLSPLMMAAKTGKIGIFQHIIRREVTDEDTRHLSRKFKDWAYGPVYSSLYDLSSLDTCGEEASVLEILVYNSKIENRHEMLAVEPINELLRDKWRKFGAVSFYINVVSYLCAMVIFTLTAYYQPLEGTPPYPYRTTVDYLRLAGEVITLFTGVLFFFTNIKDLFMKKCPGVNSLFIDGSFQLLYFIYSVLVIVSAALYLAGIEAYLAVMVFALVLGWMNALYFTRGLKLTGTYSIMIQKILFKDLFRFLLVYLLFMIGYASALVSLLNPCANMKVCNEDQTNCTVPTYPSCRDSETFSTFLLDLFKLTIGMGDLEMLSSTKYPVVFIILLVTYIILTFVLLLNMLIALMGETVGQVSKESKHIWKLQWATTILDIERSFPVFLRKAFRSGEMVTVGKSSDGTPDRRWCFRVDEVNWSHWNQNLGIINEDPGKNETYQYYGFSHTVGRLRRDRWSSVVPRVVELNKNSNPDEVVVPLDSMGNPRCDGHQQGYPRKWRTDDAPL
Experiment: FLIPR assay using TRPV4 expressing HEK cells
Assay type: cell-based
Details: FLIPR method; pEC50 = −log10(EC50 μM)
From the text: Other techniques used to measure TRPV4 channel receptor activation in chondrocytes include, but are not limited to: FLIPR assay, measuring a compound's capability to reduce the amount of ADAMTSs produced and/or released in response to a catabolic stimulus by a cell comprising a TRPV4 channel receptor; measuring a compound's capability to reduce the amount of MMPs produced and/or released in response to a catabolic stimulus by a cell comprising a TRPV4 channel receptor; measuring a compound's capability to effect the amount of nitric oxide (NO) produced in response to a catabolic stimulus by a cell comprising a TRPV4 channel receptor; and measuring a compound's capability to attenuate the inhibition of matrix synthesis in response to a catabolic stimulus by a cell comprising a TRPV4 channel receptor .
All exemplary compounds of the present invention were assessed using at least one of the biological assays presented above. Compounds presented in the Examples had pEC50 values between about 4.5 to about 7.0 as measured by Flex Station in using bovine articular cartilage and EC50 values of about 0.1 μM to about 30 μM as measured by FLIPR assay using TRPV4 expressing HEK cells.

Which EC50 does the source give for CC(C)C[C@H](NC(=O)c1cc2ccccc2s1)C(=O)NCCCN(C)S(=O)(=O)c1ccc(F)cc1Cl [Example 6, N-{(1S)-1-[({3-[[(2-chloro-4-fluorophenyl)sulfonyl](methyl)amino]propyl}amino)carbonyl]-3-methylbutyl}-1-benzothiophene-2-carboxamide] here?
Its EC50 is 0.1 to 0.794 µM.

Which EC50 does the source give for CC(C)C[C@H](NC(=O)c1cc2ccccc2s1)C(=O)NCCCN(C)S(=O)(=O)c1c(Cl)cc(Cl)cc1Cl [Example 17, N-((1S)-3-methyl-1-{[(3-{methyl[(2,4,6-trichlorophenyl)sulfonyl]amino}propyl)amino]carbonyl}butyl)-1-benzothiophene-2-carboxamide] here?
The EC50 was 1 to 7.94 µM.

Which EC50 does the source give for CC(C)C[C@H](NC(=O)c1cn2nc(Cl)ccc2n1)C(=O)NCCCN(C)S(=O)(=O)c1ccccc1C#N [Example 71, 6-chloro-N-{(1S)-1-[({3-[[(2-cyanophenyl)sulfonyl](methyl)amino]propyl}amino)carbonyl]-3-methylbutyl}imidazo[1,2-b]pyridazine-2-carboxamide] here?
Its EC50 is 10 to 20 µM.
